In publication PMC7352292, “Targeting Pharmacokinetic Drug Resistance in Acute Myeloid Leukemia Cells with CDK4/6 Inhibitors” (Cancers, 2020):
Read-outs that look alike come from different tables or passages of the source.

What was measured:
AKR1A1 = target: T1, AKR1A1 (Homo sapiens, UniProt P14550); test: Screening for inhibitory activity on recombinant CRE: AKR1A1; assay type: biochemical; conditions: 50 μM inhibitor concentration; mean ± SD, three experiments
T1 construct: made in house; host or cells: Escherichia coli
T1 sequence (P14550 1-325): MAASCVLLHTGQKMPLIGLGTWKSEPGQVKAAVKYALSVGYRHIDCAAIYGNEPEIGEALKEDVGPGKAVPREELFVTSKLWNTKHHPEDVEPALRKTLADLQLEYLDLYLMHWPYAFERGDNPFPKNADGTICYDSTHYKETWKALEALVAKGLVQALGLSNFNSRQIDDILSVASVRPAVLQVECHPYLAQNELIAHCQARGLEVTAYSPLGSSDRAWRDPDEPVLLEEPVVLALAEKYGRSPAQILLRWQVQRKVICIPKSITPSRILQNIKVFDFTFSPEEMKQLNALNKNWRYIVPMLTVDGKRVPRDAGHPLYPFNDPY
Excerpt: (§1) Human recombinant carbonyl reducing enzymes CBR1, AKR1A1, AKR1B1, AKR1B10, and AKR1C3 were expressed and isolated by the Escherichia coli expression system as described previously.

PBMC of AML patients [1] = test: Mitoxantrone accumulation in PBMC of AML patients; assay type: cell-based, human; conditions: 1 µM mitoxantrone, 4 h; for increase of median mitoxantrone accumulation: cmax concentrations, vs untreated control; for effect on median mitoxantrone accumulation: CD34− PBMC, cmax concentrations (0.5 µM abemaciclib, 0.5 µM palbociclib, 7.5 µM ribociclib)
ABCB1 = ABCB1 (Homo sapiens, UniProt P08183); test: Daunorubicin accumulation in HL-60 ABCB1 cells
Procedure: LY335979 (1 µM) and Ko143 (1 µM) were used as ABCB1 and ABCG2 model inhibitors. After 15 min, daunorubicin (HL-60 and HL-60 ABCB1) or mitoxantrone (HL-60 and HL-60 ABCG2) was added for 1 h at a final concentration of 1 µM (37 °C, 5% CO2).
The data were statistically analyzed in GraphPad Prism 8.0.1 (GraphPad Software, Inc., San Diego, CA, USA). One-way ANOVA with Dunnett’s post hoc test or Student’s t-test was used for results obtained in vitro, and the nonparametric Mann–Whitney test was used to analyze ex vivo experiments. […] The correlation between expression and function of ABCB1 and ABCG2 was determined by linear regression. All differences were considered significant at p < 0.05.

[2] = cited from earlier work
CBR1 = target: T2, CBR1 (Homo sapiens, UniProt P16152); test: Screening for inhibitory activity on recombinant CRE: CBR1; assay type: biochemical; conditions: 50 μM inhibitor concentration; mean ± SD, three experiments
T2 construct: made in house; host or cells: Escherichia coli
T2 sequence (P16152 1-277): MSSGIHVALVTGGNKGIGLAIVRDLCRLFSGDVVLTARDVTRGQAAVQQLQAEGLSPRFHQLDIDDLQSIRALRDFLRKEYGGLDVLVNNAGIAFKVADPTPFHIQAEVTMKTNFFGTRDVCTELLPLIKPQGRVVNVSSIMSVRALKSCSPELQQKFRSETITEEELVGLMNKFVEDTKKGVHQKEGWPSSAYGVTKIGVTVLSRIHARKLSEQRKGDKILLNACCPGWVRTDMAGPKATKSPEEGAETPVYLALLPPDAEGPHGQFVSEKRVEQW
Excerpt: as §1

AKR1B1 = target: T3, AKR1B1 (Homo sapiens, UniProt P15121); test: Screening for inhibitory activity on recombinant CRE: AKR1B1; assay type: biochemical; conditions: 50 μM inhibitor concentration; mean ± SD, three experiments
T3 construct: made in house; host or cells: Escherichia coli
Excerpt: as §1

HL-60 ABCB1 cells = test: Sub-G1 fraction of HL-60 ABCB1 cells; assay type: cell-based, human; conditions: 4 h
Procedure: (§2) The fluorescent substrates daunorubicin (0.2 µM) or mitoxantrone (1 µM) were then added and the suspensions incubated for 4 h at 37 °C and 5% CO2. […] The percentage of cells displaying hypodiploid DNA content is presented as a sub-G1 region of a PI histogram.

AKR1C3 [3] = target: T4, AKR1C3 (Homo sapiens, UniProt P42330); test: Inhibitory assay on HCT116 cells with transient AKR1C3 expression (daunorubicin to daunorubicinol); assay type: cell-based; conditions: HCT116 transfected with AKR1C3, 1 µM daunorubicin, 0.1-10 μM drug, 4 h
T4 sequence (P42330 1-323): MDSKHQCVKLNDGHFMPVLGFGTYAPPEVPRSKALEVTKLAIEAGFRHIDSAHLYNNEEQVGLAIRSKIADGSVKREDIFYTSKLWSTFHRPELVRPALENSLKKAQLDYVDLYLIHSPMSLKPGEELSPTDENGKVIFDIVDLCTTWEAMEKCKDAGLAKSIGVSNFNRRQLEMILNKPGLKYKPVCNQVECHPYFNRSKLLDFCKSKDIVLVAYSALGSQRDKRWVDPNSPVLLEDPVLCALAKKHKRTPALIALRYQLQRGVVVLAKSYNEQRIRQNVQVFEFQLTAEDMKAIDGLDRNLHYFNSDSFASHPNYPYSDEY
Procedure: HCT116 cells were seeded (1.25 × 10^5 cells/well) in 24-well plates and after 24 h in culture transfected with mammalian pCI_AKR1C3 plasmid as described previously. The expression of recombinant AKR1C3 was verified by western blotting using rabbit polyclonal anti-AKR1C3 antibody (ab84327, Abcam, Cambridge, UK). Uniformity of transfection was assumed only when <10% difference was observed between experiments regarding the expression of pCI plasmid containing GFP reporter gene. […] After 4 h incubation (37 °C, 5% CO2), medium was collected, cells were lysed, and resulting samples were handled and analyzed by ultra high-performance liquid chromatography as described previously.

AKR1B10 = target: T5, AKR1B10 (Homo sapiens, UniProt O60218); test: Screening for inhibitory activity on recombinant CRE: AKR1B10; assay type: biochemical; conditions: 50 μM inhibitor concentration; mean ± SD, three experiments
T5 construct: made in house; host or cells: Escherichia coli
Excerpt: as §1

AKR1C3 [4] = target: T4, AKR1C3; test: Screening for inhibitory activity on recombinant CRE: AKR1C3; assay type: biochemical; design: made in house; host or cells: Escherichia coli; conditions: 50 μM inhibitor concentration; mean ± SD, three experiments
Excerpt: as §1

PBMC of AML patients [5] = test: Apoptosis detection (annexin V/PI) in PBMC of AML patients; assay type: cell-based, human; conditions: vs untreated control, 4 h, cmax concentrations
Procedure: PBMC were isolated from whole blood using Ficoll-Paque PLUS gradient solution (GE Healthcare, Sweden) according to the manufacturer’s instructions. The mononuclear cells thus obtained were washed twice in 6 ml PBS and either transferred to RPMI with 10% FBS and immediately used for experiments or stored frozen in liquid nitrogen. […] The stated concentrations correspond with cmax plasma levels of the respective drugs. […] The cells were then washed in ice-cold PBS and resuspended in 195 µL of 2% FBS in PBS. The anti-human CD34/PE antibody 4H11 (Invitrogen, Carlsbad, CA, USA) was added and incubated on ice for 30 min. This was followed by washing and resuspending in 1 × ABB and staining by annexin V/FITC conjugate as described above. After subsequent staining with PI, the samples were analyzed using the SONY SA3800 spectral cell analyzer.

ABCG2 [6] = target: T6, ABCG2 (Homo sapiens, UniProt Q9UNQ0); test: Mitoxantrone accumulation in HL-60 ABCG2 cells
T6 sequence (Q9UNQ0 1-655): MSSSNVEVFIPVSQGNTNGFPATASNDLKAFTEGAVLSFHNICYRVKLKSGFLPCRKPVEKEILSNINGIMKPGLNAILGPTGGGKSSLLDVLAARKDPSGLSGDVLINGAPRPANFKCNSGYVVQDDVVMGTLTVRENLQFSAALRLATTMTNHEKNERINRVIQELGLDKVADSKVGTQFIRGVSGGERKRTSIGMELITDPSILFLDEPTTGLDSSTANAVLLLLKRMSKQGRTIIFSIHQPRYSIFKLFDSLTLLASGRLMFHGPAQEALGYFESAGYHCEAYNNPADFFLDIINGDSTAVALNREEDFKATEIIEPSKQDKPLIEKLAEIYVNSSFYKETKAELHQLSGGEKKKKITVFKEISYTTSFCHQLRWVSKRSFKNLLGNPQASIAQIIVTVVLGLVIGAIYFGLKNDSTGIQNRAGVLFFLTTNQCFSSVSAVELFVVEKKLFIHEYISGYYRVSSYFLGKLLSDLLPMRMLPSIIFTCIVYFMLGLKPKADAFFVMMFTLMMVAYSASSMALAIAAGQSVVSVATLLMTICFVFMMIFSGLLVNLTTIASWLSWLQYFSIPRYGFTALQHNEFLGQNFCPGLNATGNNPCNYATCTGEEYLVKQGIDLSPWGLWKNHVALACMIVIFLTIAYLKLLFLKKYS
Procedure: (§3) LY335979 (1 µM) and Ko143 (1 µM) were used as ABCB1 and ABCG2 model inhibitors. After 15 min, daunorubicin (HL-60 and HL-60 ABCB1) or mitoxantrone (HL-60 and HL-60 ABCG2) was added for 1 h at a final concentration of 1 µM (37 °C, 5% CO2). Subsequently, the samples were centrifuged at 150 × g for 5 min, washed in 500 µL ice-cold phosphate buffered saline (PBS), then resuspended again in 500 µL ice-cold PBS and promptly analyzed with a BD FACSCanto II flow cytometer (BD Biosciences, San Jose, CA, USA) using excitation/emission wavelengths 488/670 nm for daunorubicin and 633/660 nm for mitoxantrone.
(§4) The data were statistically analyzed in GraphPad Prism 8.0.1 (GraphPad Software, Inc., San Diego, CA, USA). One-way ANOVA with Dunnett’s post hoc test or Student’s t-test was used for results obtained in vitro, and the nonparametric Mann–Whitney test was used to analyze ex vivo experiments. Half-maximal inhibitory concentrations (IC50) were calculated using sigmoidal Hill kinetics while showing also the corresponding 95% confidence intervals. The correlation between expression and function of ABCB1 and ABCG2 was determined by linear regression. All differences were considered significant at p < 0.05.

HL-60 cells = test: Sub-G1 fraction of HL-60 parental/control cells; assay type: cell-based, human; conditions: single drug vs untreated control
Procedure: as §2

ABCG2 [7] = target: T6, ABCG2; conditions: 1 h
Procedure: as §3, §4

HL-60 ABCG2 cells [8] = test: Annexin V/PI staining of HL-60 ABCG2 cells; conditions: mitoxantrone alone 1 µM, 4 h
Procedure: The cell suspension was preincubated for 15 min, and then, 1 µM mitoxantrone was added. Mitoxantrone, a dual substrate of ABCB1 and ABCG2, was chosen as resistance victim drug for the experiment because there are no fluorescence spillovers with propidium iodide (PI), which limit the usage of daunorubicin in this setup. The cells were incubated for 4 h at 37 °C and 5% CO2, washed and subsequently resuspended in 1 × annexin binding buffer (ABB, 195 µL) followed by addition of 5 µL of annexin V/fluorescein isothiocyanate (FITC) conjugate. The suspension was incubated in darkness for 10 min. Cells were then washed once in 1 × ABB and resuspended in 400 µL of ABB. Prior to the measurement, 10 µL of PI solution was added and cells were analyzed by BD FACSCanto II flow cytometer using excitation/emission wavelengths 488/530 nm and 488/670 for FITC and PI, respectively.

HL-60 ABCG2 cells [9] = test: Sub-G1 fraction of HL-60 ABCG2 cells; conditions: mitoxantrone alone 1 µM, 4 h
Procedure: Estimation of fractional DNA content in the late stage of apoptosis was additionally used to clarify the results of annexin V/PI staining. […] The fluorescent substrates daunorubicin (0.2 µM) or mitoxantrone (1 µM) were then added and the suspensions incubated for 4 h at 37 °C and 5% CO2. Afterwards, the cells were resuspended in 2% FBS in PBS and fixed with ice-cold 70% ethanol for at least 30 min at −20 °C. After fixation, the cells were diluted and washed twice with 2% FBS in PBS. Then, 50 µL of RNAse A (100 µg/mL) was applied to ensure that only DNA would be present. Next, 200 µL of PI (50 µg/mL) was added to stain the DNA content of the cells. The samples were incubated for 1 h at 37 °C and 5% CO2. Analysis was performed using a SONY SA3800 spectral cell analyzer. The percentage of cells displaying hypodiploid DNA content is presented as a sub-G1 region of a PI histogram.

[10] = CDKI (1, 10, 25 µM abemaciclib, palbociclib, ribociclib) + 0.2 µM daunorubicin

T5 sequence (O60218 whole entry): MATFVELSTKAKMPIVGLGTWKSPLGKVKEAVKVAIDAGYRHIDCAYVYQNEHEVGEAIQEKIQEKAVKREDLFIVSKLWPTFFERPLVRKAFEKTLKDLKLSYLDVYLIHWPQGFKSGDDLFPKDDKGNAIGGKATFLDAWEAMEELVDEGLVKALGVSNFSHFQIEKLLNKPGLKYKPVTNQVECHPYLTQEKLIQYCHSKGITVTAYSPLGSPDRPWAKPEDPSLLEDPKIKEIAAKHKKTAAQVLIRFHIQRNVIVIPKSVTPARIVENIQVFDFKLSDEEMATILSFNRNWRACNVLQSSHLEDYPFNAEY
ABCB1, sequence (P08183 whole entry): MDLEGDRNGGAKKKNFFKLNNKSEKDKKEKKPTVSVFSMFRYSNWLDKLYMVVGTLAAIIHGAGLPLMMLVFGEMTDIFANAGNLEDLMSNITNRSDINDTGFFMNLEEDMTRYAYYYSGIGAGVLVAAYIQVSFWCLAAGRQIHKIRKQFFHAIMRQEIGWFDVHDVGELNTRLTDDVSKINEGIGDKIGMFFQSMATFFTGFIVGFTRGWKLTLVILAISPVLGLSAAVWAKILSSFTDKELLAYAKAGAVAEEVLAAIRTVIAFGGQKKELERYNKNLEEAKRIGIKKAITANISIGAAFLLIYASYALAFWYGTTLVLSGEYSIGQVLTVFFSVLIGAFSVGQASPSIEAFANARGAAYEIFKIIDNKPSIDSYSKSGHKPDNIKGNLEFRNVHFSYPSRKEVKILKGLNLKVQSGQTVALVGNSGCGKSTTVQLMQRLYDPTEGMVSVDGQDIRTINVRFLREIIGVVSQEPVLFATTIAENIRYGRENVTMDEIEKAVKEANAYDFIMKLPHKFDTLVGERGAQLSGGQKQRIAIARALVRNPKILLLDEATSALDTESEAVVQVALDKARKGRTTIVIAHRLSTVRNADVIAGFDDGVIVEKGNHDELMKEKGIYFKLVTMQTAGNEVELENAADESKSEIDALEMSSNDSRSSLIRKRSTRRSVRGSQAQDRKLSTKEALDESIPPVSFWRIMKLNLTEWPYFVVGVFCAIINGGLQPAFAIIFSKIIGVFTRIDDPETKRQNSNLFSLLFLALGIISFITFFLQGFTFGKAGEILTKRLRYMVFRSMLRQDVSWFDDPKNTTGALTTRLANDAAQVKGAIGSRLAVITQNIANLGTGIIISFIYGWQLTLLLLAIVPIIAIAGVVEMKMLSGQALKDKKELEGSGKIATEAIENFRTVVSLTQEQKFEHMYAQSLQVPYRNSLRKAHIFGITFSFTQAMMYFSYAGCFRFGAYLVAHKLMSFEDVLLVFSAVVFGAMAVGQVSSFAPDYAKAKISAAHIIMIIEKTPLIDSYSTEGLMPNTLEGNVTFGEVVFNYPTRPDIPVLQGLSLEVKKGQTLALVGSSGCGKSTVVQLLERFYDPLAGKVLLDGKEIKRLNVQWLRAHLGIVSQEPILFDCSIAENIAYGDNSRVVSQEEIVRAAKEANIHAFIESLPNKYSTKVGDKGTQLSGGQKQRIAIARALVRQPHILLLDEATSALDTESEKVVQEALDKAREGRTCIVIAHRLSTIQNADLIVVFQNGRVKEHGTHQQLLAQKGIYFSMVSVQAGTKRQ

With `CCN1CCN(Cc2ccc(Nc3ncc(F)c(-c4cc(F)c5nc(C)n(C(C)C)c5c4)n3)nc2)CC1` [Abemaciclib, abemaciclib] the inhibition at 50 µM (AKR1A1) was 0%, the “increase of median mitoxantrone accumulation” value (from here on “increase”) (PBMC of AML patients [1]; CD34+ PBMC) was 37.4% and the “effect on median mitoxantrone accumulation” value (PBMC of AML patients [1]) was “did not affect”. For the same compound, the “increase” value (PBMC of AML patients [1]; FLT3-ITD− population) was 16.4%, the IC50 (ABCB1) was 0.354 µM and the Cmax ([2]; human, in vivo) was 500 nM. The inhibition at 50 µM (CBR1) was 0%, the inhibition at 50 µM (AKR1B1) was 0% and the sub-G1 fraction (HL-60 ABCB1 cells; [10]) was 47.5%. The “changes in intracellular reduction of daunorubicin to daunorubicinol” value (from here on “changes in intracellular reduction”) (AKR1C3 [3]) was “did not show any changes”, the inhibition at 50 µM (AKR1B10) was 2.08 ± 0.4% and the inhibition at 50 µM (AKR1C3 [4]) was 26.3 ± 1.3%. The “changes in PBMC apoptosis after single drug exposure” value (shortened to “changes in PBMC apoptosis”) (PBMC of AML patients [5]) was “no significant changes”, the IC50 (ABCG2 [6]) was 2.98 µM and the “proapoptotic effect (sub-G1) as a single drug” value (“proapoptotic effect (sub-G1)” for short) (HL-60 cells) was “Neither abemaciclib, palbociclib, nor ribociclib caused a significant proapoptotic effect”. The “fold lower potency toward ABCG2 compared to ABCB1” value (ABCG2 [7]) was 8.4 fold.
For `CC(=O)c1c(C)c2cnc(Nc3ccc(N4CCNCC4)cn3)nc2n(C2CCCC2)c1=O` [Palbociclib, palbociclib], the inhibition at 50 µM (AKR1A1) was 0%, the “increase” value (PBMC of AML patients [1]; CD34+ PBMC) was 33.4% and the “effect on median mitoxantrone accumulation” value (PBMC of AML patients [1]) was “did not affect”. For the same compound, the “increase” value (PBMC of AML patients [1]; FLT3-ITD− population) was 3.58%, the IC50 (ABCB1) was 6.65 µM and the Cmax ([2]; read-out: cmax plasma levels, standard dosing, concentration used in PBMC experiments) was 500 nM. It also gave an inhibition at 50 µM (CBR1) of 0%, an inhibition at 50 µM (AKR1B1) of 5.54 ± 3.4% and a sub-G1 fraction (HL-60 ABCB1 cells; [10]) of 30.7%. The “changes in intracellular reduction” value (AKR1C3 [3]) was “did not show any changes”, the inhibition at 50 µM (AKR1B10) was 0% and the inhibition at 50 µM (AKR1C3 [4]) was 23.5 ± 6.67%. The “changes in PBMC apoptosis” value (PBMC of AML patients [5]) was “no significant changes”, the IC50 (ABCG2 [6]) was 45.5 µM and the “proapoptotic effect (sub-G1)” value (HL-60 cells) was “Neither abemaciclib, palbociclib, nor ribociclib caused a significant proapoptotic effect”. The “ABCG2 IC50 fold higher than cmax” value (ABCG2 [7]) was “approximately 100 fold” and the “fold lower potency toward ABCG2 compared to ABCB1” value (ABCG2 [7]) was 6.8 fold.
With `CN(C)C(=O)c1cc2cnc(Nc3ccc(N4CCNCC4)cn3)nc2n1C1CCCC1` [Ribociclib, ribociclib] the inhibition at 50 µM (AKR1A1) was 0%, the “increase” value (PBMC of AML patients [1]; CD34+ PBMC) was 60.5% and the “effect on median mitoxantrone accumulation” value (PBMC of AML patients [1]) was “did not affect”. The “increase” value (PBMC of AML patients [1]; FLT3-ITD− population) was 28.6%, the Cmax ([2]; human, in vivo) was 7500 nM and the inhibition at 50 µM (CBR1) was 0%. The inhibition at 50 µM (AKR1B1) was 4.58 ± 2.41%, the sub-G1 fraction (HL-60 ABCB1 cells; [10]) was 35.6% and the “changes in intracellular reduction” value (AKR1C3 [3]) was “did not show any changes”. The inhibition at 50 µM (AKR1B10) was 7.41 ± 1.08%, the inhibition at 50 µM (AKR1C3 [4]) was 36.2 ± 2.83% and the “changes in PBMC apoptosis” value (PBMC of AML patients [5]) was “no significant changes”. For the same compound, the IC50 (ABCG2 [6]) was 26.9 µM and the “proapoptotic effect (sub-G1)” value (HL-60 cells) was “Neither abemaciclib, palbociclib, nor ribociclib caused a significant proapoptotic effect”.
`COc1cccc2c1C(=O)c1c(O)c3c(c(O)c1C2=O)C[C@@](O)(C(C)=O)C[C@@H]3O[C@H]1C[C@H](N)[C@H](O)[C@H](C)O1` [daunorubicin] showed a sub-G1 fraction (HL-60 ABCB1 cells; daunorubicin alone 0.2 µM) of 13.1%.
With `O=C1c2c(O)ccc(O)c2C(=O)c2c(NCCNCCO)ccc(NCCNCCO)c21` [mitoxantrone] the “annexin V+ population” value (HL-60 ABCG2 cells [8]) was 25.2% and the sub-G1 fraction (HL-60 ABCG2 cells [9]) was 46.2%.
